Key:
[1] = system: rat cerebellar granule neurons (CGNs); experiment: Repolarization (low potassium, LK) induced death of in vitro cultured cerebellar granule neurons; format: cell-based
Procedure: The methods for rat CGNs cell culture, cellular morphologic observation and neuronal viability measurement were the same as above. Then check the in vitro cultured cerebellar granule neurons death through agarose gel electrophoresis according to reference:
(1) CGNs in […] dishes were inoculated.
(2) On day 8, 24 h after adding various medicines, the medium was removed, the cells were rinsed twice with PBS.
(3) The collected cells were spun down with a low temperature high speed centrifuge (Biofuge22R, Heraeus, Germany) at 5000 rpm, 4° for 5 min.
(4) the cell pellet was resuspended with 600 μl buffer containing 10 mmol/L Tris-HCl, 10 mmol/L EDTA and 2 g/L Triton X-100 (pH 7.5) and incubated for 15 min.
(6) The supernatant was extracted once with equal volume of phenol and spun down.
(7) The supernatant was extracted once with equal volume of phenol-chloroform (1:1), spun down.
(8) The supernatant was taken, 300 mmol/L Sodium Acetate and equal volume of isopropanol were added and precipitated for overnight.
(9) The pellet was spun down and rinsed 2-3 times with 70% ethanol.
(10) After drying, some TE (Tris 10 mmol L^−1, EDTA 1.0 mmol L^−1, pH 7.4, and 0.6 g·L^−1 RNase A) were added and incubated at 37° for 30 min.
(11) The samples were analyzed with 20 g/L agarose gel electrophoresis for 1 h.
(12) Dyed with ethidium bromide and photographed under UV light.

[2] = system: rat cerebellar granule neurons (CGNs); experiment: Glutamic acid (Glu) induced death of in vitro cultured cerebellar granule neurons; format: cell-based
Text: (1) Isolatation and primary culture of rat CGNs.
(2) Morphology observation of neuron cell body and processes under phase contrast microscopy.
(3) Analysis of neuronal metabolic activity and viability using fluorescein diacetate (FDA) staining.

[3] = system: SD rats with permanent middle cerebral artery occlusion (MCAO); experiment: MCAO induced rat cerebral ischemia model; format: in vivo
Procedure: Method: Preparation of Rat Middle Cerebral Artery Occlusion (MCAO) Model
25 healthy male SD rats were divided into 3 groups randomly: YC-1 group (n=11): 10 min, 6 h, 24 h and 7 d after occluding the middle cerebral artery, 12 mg/Kg YC-1 was continuously injected intraperitoneally. DMSO group (n=11): same volume of DMSO (1 ml/Kg) was injected in the same way. Sham group (n=3): just very short intraluminal thread was inserted and didn't occlude the MCA.
The following method was a modification of Zea Longa's method (Longa E Z, Weinstein P R, Carlson S, Cummins R. Reversible middle cerebral artery occlusion without craniectomy in rats. Stroke, 1989, 20: 84-91).
(1) The rats drinked freely but fasted one night before the operation.
(2) 10 min before anesthesia, atropine sulfate (0.5 mg/Kg) was intraperitoneally (ip) injected.
(3) Narcotized the rat with ip injected 10% chloral hydrate, 3.5 ml anesthetic per Kg rat; The areflexia of hindlimb retraction and corneal were used as anesthesia index. […]
(7) Rectum temperature was measured by using Meikangti electronic temperature measure instrument the whole process and it was strictly controlled at 36.5-37.5°. […]

[4] = system: rat cerebellar granule neurons (CGNs); experiment: Hypoxia/reoxygenation (H/R) induced death of in vitro cultured cerebellar granule neurons; format: cell-based; details: for CGNs morphology under inverted fluorescence microscope: pre-treated 3 h with 10 μM MK801 or 12 μM YC-1 or 12 μM YC-2, then 3 h hypoxia and 24 h reoxygenation
Procedure: 1) Culture of Rat Cerebellar Granule Neurons (CGNs)
According to Yan, etc, the neurons were prepared as follows:
(1) A clean 7-8 d SD rat weighing about 15-20 g was taken and the cerebella was separated under sterile condition.
(2) The meninges and vessels were gotten rid of in Kreb's anatomy solution (Ca^2+ and Mg^2+ free).
(3) The cerebella was sheared into pieces of 1 mm^3 with ophthalmic scissors.
(4) Digested in 0.25 g/L trypsin solution for 15 min at 37.
(5) The digestion was stopped with solution containing 0.5 g/L trypsin inhibitor and 0.05 g/L Dnase I and pipetted up and down to get single cell suspension.
(6) The single cell suspension was centrifuged at 200 g for 5 min, the precipitation was rinsed once with rinse solution.
(7) Span down again at 200 g for 5 min, the supernatant was discarded.
(8) The cell pellet was diluted to cell density of 1.5-1.8×10^6 cells/ml with BME medium containing 10% (v/v) FBA and 25 mM KCl.
(9) They were inoculated into cell culture dishes pre-coated with polylysine and incubated at 370 incubator with 5% CO2.
(10) Twenty-four hours after inoculation, 10 μmol/L Ara-C was added to inhibit non-neuron cells' growth and proliferation and to make the purity of CGNs above 95%.
(11) Glucose was added to 5 mM on day 7 incubation to supplement energy needed by cell metabolism.
(12) The experiment on day 8.
2). Establishment of CGNs Hypoxia/Reoxygenation (H/R) Injury Model
Referred to Seko (Seko Y, To be K, Ueki K, et al. Hypoxia and hypoxia/reoxygenation activate Raf-1, mitogen-activated protein kinase kinase, mitogen-activated protein kinases, and S6 kinase in cultured rat cardiac myocytes. Circ Res. 1996 January; 78(1):82-90) etc for the establishment method:
(1) On day 8, the treated CGNs were put in airtight box with oxygen consumption reagent and indicator and incubated at 37° for 3 h.
(2) The cells were transferred to 370 incubator with 5% CO2 for reoxygenation treatment.
(3). Cell morphological observation and neuron viability measurement
The following were done referring to Yan (Yan G M, Irwin R P, Lin S Z, et al. Diphenylhydantoin induces apoptotic cell death of cultured rat cerebellar granule neurons. J Pharmacol Exp Ther, 1995, 274(2): 983-8) et al.:
(1) CGNs were cultured in 35 mm dishes, on day 8, the medium was removed after various factors treatment, the cells were rinsed twice with 4 PBS containing Ca^2+ and Mg^2+.
(2) The cells were fixed with 40 g/L paraformaldehyde (40, dissolved in PBS) for 10 min.
(3) The fixation solution was removed, the cells were rinsed twice with distilled water, air dried at 4°.
(4) The cell morphological change was observed and randomly photographed under inverted fluorescence microscope (Olympus).

[5] = system: New Zealand white rabbits with spinal cord ischemia; experiment: Abdominal aorta clipping induced rabbit spinal cord ischemia model; format: in vivo; details: 8 mg/Kg intravenous 30 min before ischemia
Procedure: Method: Preparation of spinal cord ischemia model.
24 male New Zealand white rabbits were divided evenly into 3 groups (n=8):
YC-1 group: 30 min before spinal cord ischemia, 8 mg/Kg YC-1 was intravenous injected through the rabbit's ear. DMSO group: same volume of DMSO (1 ml/Kg) was injected in the same way.
Sham group: the abdominal aorta was exposed but wasn't clipped.
Referring to Johnson etc, the model was prepared as follows:
(1) The rabbits drinked freely but fasted one night before the operation.
(2) The rabbit was anesthetized by injecting 3% sodium pentobarbital (30 mg/Kg) by ear intravenous. On the other side of the ear a vein-detaining needle (24 G) was set for medicine and other fluid infusion.
(3) An artery-detaining needle (24 G) was set in the right ear artery for monitoring the proximal arterial pressure and blood sampling during the operation.
(4) An artery-detaining needle (24 G) was set in a femoral artery for monitoring the distal arterial pressure during the operation.
(5) The rabbit was supinely fixed and incised at the median abdomen; the abdominal aorta was exposed.
(6) Injected heparin (150 U/Kg) through the vein-detaining needle, then the abdominal aorta was clipped at the 0.5-1.0 cm spot below origin of the left renal artery to cause spinal cord ischemia.
(7) Once the abdominal aorta was blocked, the distal arterial pressure decreased immediately and the femoral arterial pulsation disappeared.
(8) The clip was removed 20 min after ischemia and the abdomen was sutured.
(9) Then intramuscularly injected 40,000 U gentamicin, the rabbit was returned back to cage and observed for 48 h.
(10) The proximal arterial pressure, distal arterial pressure and heart rate (Spacelab, US) were continuously monitored during the operation. Rectum temperature was maintained at 38.5±0.5° by using heating pad and roasting lamp.
(11) Blood gas (AVL-2, Switzerland) and glucose (One Touch II, USA) were monitored by ear artery blood sampling 10 min before ischemia, 10 min after ischemia and 10 min after reperfusion.

SMILES | CGNs morphology (cell bodies and processes) ([1]; 12 μM added 3 h before and at change to 5 mM KCl serum free medium, 24 h) | CGNs survived (FDA staining) ([1]; 12 μM added 3 h before and at change to 5 mM KCl serum free medium, 24 h, low potassium alone 40.2±14.04%) [%] | DNA fragments produced from LK induced CGNs apoptosis (agarose gel electrophoresis) ([1]; FIG. 18) | Glu induced CGNs apoptosis (phase contrast microscopy) ([2]; 12 μM added 1 h before 150 μM Glu, observed 24 h later) | CGNs' viability (FDA staining) ([2]; 12 μM, 150 μM Glu 24 h, Glu control group 29.5±8.23%) [%] | brain tissue colour and morphology by visual inspection ([3]; rat MCAO, 12 mg/Kg intraperitoneally, DMSO group showed obvious pallor and swelling) | infarct size (TTC dye) ([3]; rat permanent MCAO, 12 mg/Kg YC-1 intraperitoneally at 10 min, 6 h, 24 h and 7 d after occlusion, DMSO group 62±8%) [%] | neuronal viability (FDA dye) ([4]; 10 μM MK801 or 12 μM YC-1 or 12 μM YC-2, then H/R, H/R alone 16.56±3.21%) [%] | nuclear morphology (Hoechst33258 dye) ([4]; 12 μM, then H/R treatment) | CGNs morphology under inverted fluorescence microscope [4] | rabbits able to stand (hindlimb function) ([5]; rabbit spinal cord ischemia 20 min, n=8, no rabbit in DMSO group could stand) | neurological function score ([5]; rabbit spinal cord ischemia, each observation time point, versus DMSO group, p<0.05) | lumbar spinal cord injury (histopathological examination) ([5]; rabbit spinal cord ischemia, versus DMSO group) | number of normal spinal cord anterior horn neurons ([5]; rabbit spinal cord ischemia, versus DMSO group, p<0.01) | viability at 10 µM ([4]; Rattus norvegicus, Neuron, 10 μM MK801 or 12 μM YC-1 or 12 μM YC-2, then H/R, H/R alone 16.56±3.21%, read-out: neuronal viability (FDA dye)) [%]
C=C(CC[C@@H](C)[C@H]1CC[C@H]2[C@@H]3C[C@@H](O)[C@@]4(O)C[C@@H](O)CC[C@]4(CO)[C@H]3CC[C@]12C)C(C)C [YC-1, 24-methylene-cholest-3β,5α,6β,19-tetrol] | most CGNs kept intact cell bodies and processes | 94.3±14.02 | can reduce DNA fragments | obviously inhibited Glu induced CGNs apoptosis | 92.6±2.59 | no obvious pallor and swelling | 32±11 | 84.29±1.26 | Most CGNs showed normal nuclear morphology and even chromatin distribution | Most CGNs cell body kept intact, plump and lucent | Six rabbits in the CPA (YC-1) group could stand | obviously higher than that in DMSO group | obviously relieved | increased evidently | 
C[C@]12N[C@H](Cc3ccccc31)c1ccccc12 [MK801, reference compound] |  |  |  |  |  |  |  |  |  | Most CGNs cell body kept intact, plump and lucent |  |  |  |  | 86.7 ± 3.21

Reference: patent publication US20100152150A1, “THE APPLICATION OF MARINE STEROID IN PREPARING THE MEDICINE OF TREATING NEURONS DAMAGING” (priority 2006, published 2010)
